The source of these data is PubChem BioAssay (NCI).

Each structure is given as a SMILES string.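 Tested at 5 concentrations; 48 h exposure; 96-well plates; endpoints linearly interpolated, else capped at highest concentration. TGI: concentration producing complete growth inhibition.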 A value given as a limit tells only on which side of the number the result lay.

Some test systems named below: HCT-15 colon; OVCAR-4 ovarian; K-562 leukemia; DU-145 prostate; OVCAR-5 ovarian; MDA-N; A498 renal; KM12 colon; RPMI-8226 leukemia; SR leukemia.
What all share (assay): DTP human tumour cell line panel, 48 h

For the molecule `CC1SC2(CCCCC2)N(NC(=O)CSc2nc3ccc(Cl)cc3c(=O)n2-c2ccccc2)C1=O` (stereo unspecified), the TGI in the experiment with HCT-15 colon was 45.2 µM; with OVCAR-4 ovarian it was over 100 µM; in the experiment with K-562 leukemia it was 73.8 µM; in the experiment on DU-145 prostate, 85.8 µM; with OVCAR-5 ovarian, 58.4 µM; with MDA-N, 36.2 µM. The values for the concentration for total growth inhibition (TGI) in the experiment on A498 renal and in the experiment on KM12 colon were 81.2 µM and over 100 µM, respectively.

As to `Cc1cc(Nc2ccc(NS(C)(=O)=O)cc2)c2c(ccc3nccc32)[nH]1`, the TGI in the experiment on HCT-15 colon is over 100 µM; in the experiment with OVCAR-4 ovarian, 30.6 µM; in the experiment on K-562 leukemia, 34.6 µM; in the experiment with RPMI-8226 leukemia it was 40.7 µM; with DU-145 prostate it was 40.1 µM; with OVCAR-5 ovarian, 75.1 µM. In addition, the values for the TGI in the experiment on MDA-N, in the experiment on A498 renal and with KM12 colon were 31.5 µM, 43 µM and 36.2 µM, respectively.

Consider `CCSc1nc(=S)n(-c2ccccc2)c(C)c1C(C)=O`, for which the TGI with HCT-15 colon, in the experiment on OVCAR-4 ovarian, with SR leukemia, with K-562 leukemia, in the experiment on RPMI-8226 leukemia and in the experiment on DU-145 prostate was over 100 µM each time. The TGI in the experiment with OVCAR-5 ovarian, in the experiment on A498 renal and in the experiment on KM12 colon was over 100 µM in each case.

In the case of `Cc1nc2c(cc1OCc1ccccc1)C(=O)C1=C(C2=O)C2OC(=O)CC2OC1(C)C` (stereo unspecified), the TGI in the experiment on HCT-15 colon was 0.634 µM; in the experiment on OVCAR-4 ovarian it was 1.94 µM; in the experiment on RPMI-8226 leukemia, over 100 µM; with DU-145 prostate, 3.09 µM; in the experiment on OVCAR-5 ovarian it was 2.16 µM; with MDA-N, 1.75 µM. The values for the TGI with A498 renal and with KM12 colon were 3.02 µM and 2 µM, respectively.

As to `COc1c(Br)cc2ccccc2c1-c1c(OC)c(Br)cc2ccccc12`, the TGI with HCT-15 colon, in the experiment with OVCAR-4 ovarian, with K-562 leukemia, in the experiment on RPMI-8226 leukemia, with DU-145 prostate and in the experiment on OVCAR-5 ovarian was over 100 µM in each case. Besides, the TGI in the experiment on MDA-N, in the experiment with A498 renal and with KM12 colon was over 100 µM each time.

Consider `CCCCSC1=N/C(=C\c2ccc(N(C)C)cc2)C(=O)N1`, for which the TGI with HCT-15 colon is over 100 µM; in the experiment on OVCAR-4 ovarian, over 100 µM; with K-562 leukemia, over 100 µM; in the experiment with RPMI-8226 leukemia, 50.2 µM; with DU-145 prostate, over 100 µM; in the experiment with OVCAR-5 ovarian it was over 100 µM. Also, the TGI was over 100 µM with MDA-N, 40.4 µM with A498 renal and over 100 µM in the experiment on KM12 colon.

With `C/C=C(\C)C(=O)O[C@@H]1CC(C)(C)CC2C3=CCC4[C@]56CC[C@](O)(OC5)C(C)(C)C6CC[C@@]4(C)C3(C)CC[C@]21C(=O)O` (stereo partly specified), the TGI with HCT-15 colon, in the experiment on OVCAR-4 ovarian, in the experiment with K-562 leukemia, with RPMI-8226 leukemia, in the experiment with DU-145 prostate and with OVCAR-5 ovarian was over 100 µM throughout. Also, the TGI in the experiment with MDA-N, with A498 renal and in the experiment with KM12 colon was over 100 µM throughout.

In the case of `NC(=O)CC(N)C(=O)NC(Cc1ccccc1)C(=O)NC(Cc1ccccc1)NC(=O)C(Cc1c[nH]c2ccccc12)C(=O)O` (stereo unspecified), the TGI in the experiment on HCT-15 colon, in the experiment with OVCAR-4 ovarian, with K-562 leukemia, with RPMI-8226 leukemia, in the experiment on DU-145 prostate and in the experiment with OVCAR-5 ovarian was over 100 µM in each case. In addition, the TGI with A498 renal and in the experiment on KM12 colon was over 100 µM each time.

As for `CCOC(=O)/C=C(\C(=O)OCC)n1cc(Cl)c(=O)n(CC(=O)OCC)c1=O`, the total growth inhibition concentration (TGI) worked out at 13.4 µM with HCT-15 colon; 41.2 µM in the experiment with OVCAR-4 ovarian; 4.23 µM with K-562 leukemia; 4.58 µM in the experiment with RPMI-8226 leukemia; 31.1 µM with DU-145 prostate; 33.3 µM in the experiment on OVCAR-5 ovarian. The total growth inhibition concentration (TGI) in the experiment with MDA-N was determined as 24 µM; in the experiment on A498 renal, 34.9 µM; with KM12 colon, 34.9 µM.

In the case of `COC(=O)c1c(C)cccc1C1CN=NC12Cc1cc(C)cc(C)c1C2=O` (stereo unspecified), the TGI with HCT-15 colon, with OVCAR-4 ovarian, in the experiment with K-562 leukemia, in the experiment on DU-145 prostate, in the experiment on OVCAR-5 ovarian and in the experiment with MDA-N was over 100 µM throughout. Besides, the TGI is 74.9 µM in the experiment on A498 renal and over 100 µM in the experiment with KM12 colon.

Regarding `O=C(c1cccs1)N1CCCN(C(=O)c2cccs2)C1=S`, the TGI with HCT-15 colon, with K-562 leukemia, in the experiment on RPMI-8226 leukemia, with DU-145 prostate, in the experiment with OVCAR-5 ovarian and in the experiment with A498 renal was over 100 µM each time. In addition, the TGI in the experiment with KM12 colon is over 100 µM.

`S=c1nc(N/N=C/c2cccs2)c2cn[nH]c2[nH]1`: the TGI in the experiment on HCT-15 colon was 64.1 µM; in the experiment with OVCAR-4 ovarian it was over 100 µM; in the experiment with SR leukemia, 37.2 µM; in the experiment with K-562 leukemia, over 100 µM; in the experiment with RPMI-8226 leukemia it was 62.6 µM; in the experiment with DU-145 prostate it was over 100 µM. Further, the TGI in the experiment with OVCAR-5 ovarian is 49.5 µM; in the experiment with A498 renal, over 100 µM; in the experiment on KM12 colon it was 39.1 µM.

For the molecule `CC(C)C(=O)/C=C/S/C=C/C(=O)C(C)C`, the TGI in the experiment on HCT-15 colon is 12.2 µM; in the experiment on OVCAR-4 ovarian, over 100 µM; in the experiment on DU-145 prostate, 29.4 µM; in the experiment with OVCAR-5 ovarian it was 22.1 µM; with KM12 colon, 92.1 µM.

For the molecule `CNC(=O)SCC(NC(=O)CCC(N)C(=O)O)C(=O)NCC(=O)O` (stereo unspecified), the TGI in the experiment with HCT-15 colon, in the experiment on OVCAR-4 ovarian, in the experiment on K-562 leukemia, with RPMI-8226 leukemia, in the experiment with OVCAR-5 ovarian and in the experiment on A498 renal was over 100 µM each time. Also, in the experiment on KM12 colon, the TGI is over 100 µM.

Regarding `C=CC(C)C1(CCCOCc2ccccc2)C(=S)N2CCC3(CC24CCCC14)OCCO3` (stereo unspecified), the TGI with HCT-15 colon is over 100 µM; with OVCAR-4 ovarian, over 100 µM; in the experiment on K-562 leukemia, over 100 µM; in the experiment on RPMI-8226 leukemia, 10.4 µM; with OVCAR-5 ovarian, over 100 µM; in the experiment on A498 renal, over 100 µM. In the experiment on KM12 colon, this molecule displayed a concentration for total growth inhibition (TGI) of over 100 µM.

Broadly, the TGI is the concentration at which net growth stops.
